Tests used:
Type in all cases: in vivo, human
GR-inducible genes = assay: Separate healthy volunteer study: genes induced in whole blood by prednisone; details: single dose, healthy volunteers
[1] = Phase 2 study: safety and tolerability (adverse events); details: relacorilant (intermittent or continuous) + nab-paclitaxel compared to nab-paclitaxel monotherapy; data as of Mar. 22, 2021
Description: Independent comparisons for the intermittent versus (vs.) comparator study arms and the continuous vs. comparator arms were performed. The primary endpoint of the study was progression-free survival as determined by the Response Evaluation Criteria in Solid Tumors (“RECIST”) version 1.1 guidelines (available via the World Wide Web at the following URL: ctep.cancer.gov/protocolDevelopment/docs/recist_guideline.pdf). Secondary endpoints included objective response rate, duration of response, overall survival, and safety of the combined administration of nab-paclitaxel and relacorilant. All efficacy objectives and corresponding endpoints listed below, assessment for response and disease progression were assessed according to RECIST v1.1.
Relacorilant treatment was safe, for both the intermittent and continuous groups, and was well tolerated by the patients. […] Safety and tolerability of the three treatment regimens is illustrated in FIG. 8 (data as of Mar. 22, 2021). There were fewer serious (grade ≥3) peripheral neuropathies in the intermittent group than the comparator group. […]

[2] = Phase 2 study: exposures (AUC, Cmax) of relacorilant and nab-paclitaxel; details: patients
Description: The exposures and peak concentrations of both nab-paclitaxel and of relacorilant were measured.

Row | variability of exposures ([2]; all groups, AUC and Cmax) | Structure (SMILES) | number of genes induced (GR-inducible genes) | safety and tolerability [1] | exposures (AUC and Cmax) versus safety endpoints, presence or absence of the adverse events [2]
1 | – | C[C@]12C=CC(=O)C=C1CC[C@@H]1[C@@H]2C(=O)C[C@@]2(C)[C@H]1CC[C@]2(O)C(=O)CO [prednisone] | 239 | – | –
2 | large variability | Cn1cc(S(=O)(=O)N2CCC3=Cc4c(cnn4-c4ccc(F)cc4)C[C@]3(C(=O)c3cc(C(F)(F)F)ccn3)C2)cn1 [relacorilant, (R)-(1-(4-fluorophenyl)-6-((1-methyl-1H-pyrazol-4-yl)sulfonyl)-4,4a,5,6,7,8-hexahydro-1H-pyrazolo[3,4-g]isoquinolin-4a-yl)(4-(trifluoromethyl)pyridin-2-yl)methanone] | – | safe | largely overlapping exposures
